{
  "source": "patent EP4174079B1",
  "about": "(UNIWERSYTET JAGIELLONSKI, priority 2021, dated 2023)",
  "origin": "cited, not measured here",
  "conditions": "compared with cisplatin",
  "data": [
    {"molecule": "[Cl][Pt][Cl].c1cn[nH]c1.c1cn[nH]c1", "note": "[Cis-PtCl2(pzH)2]", "values": [
      {"measurement": "antitumour activity", "result": "significantly lower than cisplatin"}
    ]}
  ]
}
